These are literature values, as cited in patent US9255156B2, “Immunogenic synthetic glycoconjugate for the immunotherapy of melanoma” (Azienda Ospedaliero-Universitaria Careggi, priority 2009, dated 2016).

Take GM3 lactone [GM3 lactone 2]: the “stability under physiological conditions / hydrolytic stability” value is “unstable under physiological conditions”.
